Tests used:
[1] = test system: forskolin-stimulated accumulation of cAMP; assay: Cyclic AMP accumulation in intact cells (block of forskolin-stimulated accumulation of cAMP); format: cell-based; conditions: for EC50: 10 min, 37° C.; for Emax: relative to melatonin, read-out: I.A. (Intrinsic Activity) = Emax (experimental compound)/Emax (melatonin)
From the text: Further, the compounds are agonists as determined by their ability, like melatonin, to block the forskolin-stimulated accumulation of cAMP in certain cells.
Measurement of Functional Activity
Cyclic AMP Accumalation in Intact Cells: Melatonin
Remove media from cell flask and wash with Hank's salt solution or PBS as appropriate. Detach cells from flask using whatever means are used when splitting. Add enough media so that the concentration of cells is 4×10^5 /ml when counted with a hemocytometer (40 cells in the center square). This concentration of cells can Vary depending on the ultimate cAMP response of the type of cells used. Also, dialyzed fetal bovine serum (FBS) or heat inactivated FBS should be used in the-media when plating the cells in case endogenous substances are present in the FBS that might interfere with the test. Add 1 ml of cell suspension to each well (4×10^5 cells/well), then 2 mls of media and incubate cells overnight.
SOLUTIONS needed for cyclase:
1. Stock solution: plain media (no serum or additives) +20mM HEPES. (500 ml bottle media+10 mls of 1M HEPES GIBCO stock). This solution can be refrigerated and reused.
2. IBMX solution: media/HEPES+1 mM IBMX. (50 mls+11.1 mg IBMX, IBMX mw=222.2). This solution can be refrozen.
3. Assay solution: 90% stock solution+10% IBMX solution. Figure out the volume of solution needed for the assay. Each well gets 3 mls of assay solution for a preincubation and 3 mls for the actual assay, therefore, 6 mls/well. Each test condition is done in triplicate.
a) Basal 7 mls assay solution +[…]
b) Forskolin Stimulation: […]: 7 mls assay solution +[…] (stock solution in freezer, in DMSO)
c) Forskolin+competitor (melatonin): […]: 7 mls assay solution +[…]+desired concentration of competitor (melatonin). Solutions b) and c) can be combined when adding forskolin, then split before adding competitor.
All solutions should be warmed to 37° C. All test conditions are done in triplicate. Plates with cells are kept in a shallow 37° C. water bath throughout the reaction. Remove media from the wells and add 3 ml of preincubation media. After 10 min, remove that solution and add 3 mls of drug solution. After 10 min the media is removed and reaction stopped with 1 ml 0.1N HCl. Staggering the incubation is recommended. The preincubation step can be eliminated if the cells don't adhere well to the plate or the plates can be pretreated with extracellular matrix such as poly-D-lysine. Let samples set for at least an hour at room temperature. Remove 1 ml from dish and put into a microfuge tube. Do a 3 min spin to remove floating cells. Dilute 1:100 for RIA (this dilution will vary depending on the concentration curve of the RIA kit and the cAMP response and concentration of the cells). Do radioimmunoassay (Amersham: Cat.no. RPA.509).

[2] = test system: [^125 I]-2-iodomelatonin binding; conditions: comparative study; Copinga et al, J.Med. Chem., 1993, 36, 2891; cited from earlier work
rats = conditions: exogenous melatonin administration, Cassone, et al., 1986; cited from earlier work

Row | Compound | EC50 [1] [nM] | Emax [1] [%] | [125I]-2-iodomelatonin binding properties, in words [2] | synchronization of circadian rhythms (rats)
1 | COc1cc(CCCNC(=O)C2CC2)ccc1Cl [Example 30, N-[3-(4-Chloro-3-methoxyphenyl)propyl]-cyclopropane carboxamide] | 3.4 | 98 | – | –
2 | COc1cccc(CCNC(C)=O)c1 [compound 10] | – | – | markedly inferior | –
3 | COc1ccc2[nH]cc(CCNC(C)=O)c2c1 [melatonin, N-acetyl-5-methoxytryptamine] | – | – | – | found to synchronize circadian rhythms in rats
4 | CCCC(=O)NCCCc1cccc(OC)c1 [Example 2, N-[3-(3-Methoxyphenyl)propyl]butanamide] | 4.9 | 95 | – | –
5 | COc1ccc(F)c(/C=C\CNC(=O)C(C)C)c1 [Example 7, cis-N-[3-(2-Fluoro-5-methoxyphenyl)-2-propenyl]-2-methylpropanamide] | 120 | 120 | – | –
